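Following 48 hours of exposure in 96-well plates, responses at five concentrations were used to interpolate endpoints linearly. Abbreviation: GI50, concentration required for 50% inhibition of growth.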 Active and inactive are the calls of the source. Rule as the data show it: active = GI50 up to about 1.1 µM and inactive = higher.
How the values were obtained:
Assay in all cases: growth of human tumour cells (NCI), 48 h
OVCAR-5 = system: OVCAR-5
K562 = system: K562
NCI-H460 = system: NCI-H460
HOP-62 = system: HOP-62
MOLT-4 = system: MOLT-4
NCI-H23 = system: NCI-H23
SK-MEL-5 = system: SK-MEL-5
A549 = system: A549
SK-MEL-2 = system: SK-MEL-2
NCI-H226 = system: NCI-H226
EKVX = system: EKVX
MDA-MB-231 = system: MDA-MB-231
COLO 205 = system: COLO 205
HCT-15 = system: HCT-15
OVCAR-8 = system: OVCAR-8
SNB-19 = system: SNB-19
HCC 2998 = system: HCC 2998
MDA-MB-435 = system: MDA-MB-435
SF-539 = system: SF-539
Malme-3M = system: Malme-3M
HT-29 = system: HT-29
UO-31 = system: UO-31
DU-145 = system: DU-145
HOP-92 = system: HOP-92
Hs-578T = system: Hs-578T
HL-60 = system: HL-60
HCT-116 = system: HCT-116
IGROV-1 = system: IGROV-1
CAKI-1 = system: CAKI-1
786-0 = system: 786-0
OVCAR-3 = system: OVCAR-3
SR = system: SR
U-251 = system: U-251
RPMI-8226 = system: RPMI-8226
RXF 393 = system: RXF 393
SK-MEL-28 = system: SK-MEL-28
A498 = system: A498
SF-295 = system: SF-295
NCI/ADR-RES = system: NCI/ADR-RES
CCRF-CEM = system: CCRF-CEM
SN12C = system: SN12C
M14 = system: M14
T47D = system: T47D
UACC-62 = system: UACC-62
ACHN = system: ACHN
LOX IMVI = system: LOX IMVI
TK-10 = system: TK-10
UACC-257 = system: UACC-257
OVCAR-4 = system: OVCAR-4
SF-268 = system: SF-268
KM12 = system: KM12
SW-620 = system: SW-620
PC-3 = system: PC-3
MCF7 = system: MCF7
NCI-H522 = system: NCI-H522
SNB-75 = system: SNB-75
SK-OV-3 = system: SK-OV-3
MDA-N = system: MDA-N

## C/C(=C\c1ccc2c(c1)OCO2)[N+](=O)[O-]
OVCAR-5
  GI50: 3.96 µM (inactive)
K562
  GI50: 1.64 µM (inactive)
NCI-H460
  GI50: 3.26 µM (inactive)
HOP-62
  GI50: 3.56 µM (inactive)
MOLT-4
  GI50: 0.195 µM (active)
NCI-H23
  GI50: 2.46 µM (inactive)
SK-MEL-5
  GI50: 1.91 µM (inactive)
A549
  GI50: 4.2 µM (inactive)
SK-MEL-2
  GI50: 2.99 µM (inactive)
NCI-H226
  GI50: 3.84 µM (inactive)
EKVX
  GI50: 4.08 µM (inactive)
MDA-MB-231
  GI50: 6.49 µM (inactive)
COLO 205
  GI50: 1.66 µM (inactive)
HCT-15
  GI50: 1.96 µM
OVCAR-8
  GI50: 2.77 µM (inactive)
SNB-19
  GI50: 2.49 µM (inactive)
HCC 2998
  GI50: 3.54 µM (inactive)
MDA-MB-435
  GI50: 2.21 µM (inactive)
SF-539
  GI50: 2.91 µM (inactive)
Malme-3M
  GI50: 2.84 µM (inactive)
HT-29
  GI50: 2.98 µM (inactive)
UO-31
  GI50: 1.19 µM (inactive)
DU-145
  GI50: 2.23 µM (inactive)
HOP-92
  GI50: 2.51 µM (inactive)
Hs-578T
  GI50: 5.14 µM (inactive)
HL-60
  GI50: 1.46 µM (inactive)
HCT-116
  GI50: 7.16 µM (inactive)
IGROV-1
  GI50: 2.34 µM (inactive)
CAKI-1
  GI50: 2.28 µM (inactive)
786-0
  GI50: 1.56 µM (inactive)
OVCAR-3
  GI50: 1.66 µM (inactive)
SR
  GI50: 0.323 µM (active)
U-251
  GI50: 1.79 µM (inactive)
RPMI-8226
  GI50: 0.225 µM (active)
RXF 393
  GI50: 1.46 µM (inactive)
SK-MEL-28
  GI50: 2.74 µM (inactive)
A498
  GI50: 7.23 µM (inactive)
SF-295
  GI50: 2.85 µM (inactive)
NCI/ADR-RES
  GI50: 6.04 µM (inactive)
CCRF-CEM
  GI50: < 0.01 µM (active)
SN12C
  GI50: 3.38 µM (inactive)
M14
  GI50: 3.65 µM (inactive)
T47D
  GI50: 1.64 µM (inactive)
UACC-62
  GI50: 2.01 µM (inactive)
ACHN
  GI50: 2.01 µM (inactive)
LOX IMVI
  GI50: 0.315 µM (active)
TK-10
  GI50: 2.45 µM (inactive)
UACC-257
  GI50: 2.43 µM (inactive)
OVCAR-4
  GI50: 4.4 µM (inactive)
SF-268
  GI50: 3.44 µM (inactive)
KM12
  GI50: 1.54 µM (inactive)
SW-620
  GI50: 2.59 µM (inactive)
PC-3
  GI50: 2.64 µM (inactive)
MCF7
  GI50: 0.205 µM (active)
NCI-H522
  GI50: 1.64 µM (inactive)
SNB-75
  GI50: 5.16 µM (inactive)

## Cc1ccc(S(=O)(=O)OC2C(O)C(O)OC2C(c2cc(O)c3c(c2O)C(=O)c2ccccc2C3=O)c2cc(O)c3c(c2O)C(=O)c2ccccc2C3=O)cc1 (configuration not stated)
K562
  GI50: 3.24 µM (inactive)
HOP-62
  GI50: 4.11 µM (inactive)
MOLT-4
  GI50: 3.31 µM (inactive)
NCI-H23
  GI50: 2.99 µM (inactive)
SK-MEL-5
  GI50: 3.43 µM (inactive)
A549
  GI50: 3.54 µM (inactive)
EKVX
  GI50: 3.33 µM (inactive)
MDA-MB-231
  GI50: 4.06 µM (inactive)
COLO 205
  GI50: 2.2 µM (inactive)
HCT-15
  GI50: 3.4 µM
OVCAR-8
  GI50: 3.44 µM (inactive)
HCC 2998
  GI50: 4.09 µM (inactive)
Malme-3M
  GI50: 1.28 µM (inactive)
HT-29
  GI50: 5.24 µM (inactive)
DU-145
  GI50: 5.58 µM (inactive)
HL-60
  GI50: 1.87 µM (inactive)
IGROV-1
  GI50: 7.1 µM (inactive)
CAKI-1
  GI50: 2.74 µM (inactive)
786-0
  GI50: 4.94 µM (inactive)
SR
  GI50: 3.08 µM (inactive)
RPMI-8226
  GI50: 2.64 µM (inactive)
RXF 393
  GI50: 5.36 µM (inactive)
SK-MEL-28
  GI50: 7.26 µM (inactive)
SK-OV-3
  GI50: 6.25 µM (inactive)
SF-295
  GI50: 3.76 µM (inactive)
MDA-N
  GI50: 3.61 µM (inactive)
CCRF-CEM
  GI50: 3.89 µM (inactive)
SN12C
  GI50: 3.65 µM (inactive)
M14
  GI50: 2.74 µM (inactive)
T47D
  GI50: 5.07 µM (inactive)
UACC-62
  GI50: 4.38 µM (inactive)
TK-10
  GI50: 8.71 µM (inactive)
UACC-257
  GI50: 3.01 µM (inactive)
KM12
  GI50: 3.42 µM (inactive)
SW-620
  GI50: 4.65 µM (inactive)
PC-3
  GI50: 2.9 µM (inactive)
MCF7
  GI50: 3.44 µM (inactive)
SNB-75
  GI50: 4.09 µM (inactive)

## CN(C)c1ccc(/C=C/c2ccc(S(N)(=O)=O)cc2)cc1
OVCAR-5
  GI50: 18 µM (inactive)
NCI-H460
  GI50: 14.9 µM (inactive)
HOP-62
  GI50: 18.7 µM (inactive)
SK-MEL-5
  GI50: 11.3 µM (inactive)
SK-MEL-2
  GI50: 28.2 µM (inactive)
EKVX
  GI50: 21.8 µM (inactive)
MDA-MB-231
  GI50: 13.5 µM (inactive)
COLO 205
  GI50: 24.5 µM (inactive)
SNB-19
  GI50: 20.2 µM (inactive)
HCC 2998
  GI50: 34 µM (inactive)
Malme-3M
  GI50: 14 µM (inactive)
UO-31
  GI50: 17.7 µM (inactive)
DU-145
  GI50: 13.6 µM (inactive)
HCT-116
  GI50: 23.1 µM (inactive)
786-0
  GI50: 16.9 µM (inactive)
OVCAR-3
  GI50: 20.4 µM (inactive)
RXF 393
  GI50: 20.7 µM (inactive)
SK-MEL-28
  GI50: 11.5 µM (inactive)
SK-OV-3
  GI50: 17 µM (inactive)
A498
  GI50: 17.7 µM (inactive)
SF-295
  GI50: 24.3 µM (inactive)
NCI/ADR-RES
  GI50: 14.8 µM (inactive)
MDA-N
  GI50: 11.8 µM (inactive)
SN12C
  GI50: 20.4 µM (inactive)
M14
  GI50: 15.8 µM (inactive)
T47D
  GI50: 27 µM (inactive)
TK-10
  GI50: 20.5 µM (inactive)
UACC-257
  GI50: 46.5 µM (inactive)
SW-620
  GI50: 11.1 µM (inactive)
PC-3
  GI50: 14.8 µM (inactive)
MCF7
  GI50: 13.4 µM (inactive)
SNB-75
  GI50: 22.7 µM (inactive)

## CCOC(=O)/C(=C/c1cn(C(C)=O)c2ccccc12)P(=O)(OC)OC
OVCAR-5
  GI50: 40.6 µM (inactive)
K562
  GI50: 25.6 µM (inactive)
NCI-H460
  GI50: 24.4 µM (inactive)
HOP-62
  GI50: 63.4 µM (inactive)
MOLT-4
  GI50: 25.4 µM (inactive)
NCI-H23
  GI50: 33.8 µM (inactive)
SK-MEL-5
  GI50: 23.1 µM (inactive)
A549
  GI50: 33.2 µM (inactive)
SK-MEL-2
  GI50: 31.1 µM (inactive)
MDA-MB-231
  GI50: 43.8 µM (inactive)
COLO 205
  GI50: > 10 µM (inactive)
HCT-15
  GI50: 29.7 µM
OVCAR-8
  GI50: 46.7 µM (inactive)
HCC 2998
  GI50: > 10 µM (inactive)
MDA-MB-435
  GI50: 36.4 µM (inactive)
HT-29
  GI50: 40.5 µM (inactive)
DU-145
  GI50: 22.2 µM (inactive)
HOP-92
  GI50: 31.1 µM (inactive)
Hs-578T
  GI50: 31 µM (inactive)
HL-60
  GI50: 18 µM (inactive)
HCT-116
  GI50: 30.8 µM (inactive)
IGROV-1
  GI50: 25.6 µM (inactive)
CAKI-1
  GI50: 31.9 µM (inactive)
OVCAR-3
  GI50: 20.3 µM (inactive)
SR
  GI50: 24.8 µM (inactive)
U-251
  GI50: 30.4 µM (inactive)
RPMI-8226
  GI50: 19.9 µM (inactive)
SK-MEL-28
  GI50: 37.2 µM (inactive)
SK-OV-3
  GI50: 25.1 µM (inactive)
A498
  GI50: 15.3 µM (inactive)
SF-295
  GI50: 44.4 µM (inactive)
NCI/ADR-RES
  GI50: 29.2 µM (inactive)
CCRF-CEM
  GI50: 30 µM (inactive)
SN12C
  GI50: 31.6 µM (inactive)
M14
  GI50: 52.4 µM (inactive)
T47D
  GI50: 13.7 µM (inactive)
ACHN
  GI50: 31.4 µM (inactive)
LOX IMVI
  GI50: 25.3 µM (inactive)
TK-10
  GI50: > 100 µM (inactive)
UACC-257
  GI50: 19.1 µM (inactive)
OVCAR-4
  GI50: 33.4 µM (inactive)
SW-620
  GI50: 41.8 µM (inactive)
PC-3
  GI50: 25.9 µM (inactive)
MCF7
  GI50: < 0.01 µM (active)
NCI-H522
  GI50: 30.5 µM (inactive)
SNB-75
  GI50: 16 µM (inactive)
